Patent US8389562B2, “Polymorphic forms of a 3-pyrrole substituted 2-indolinone” (Medichem, S.A., priority 2007, dated 2013)

Key:
[1] = European Public Assessment Report provided for SUTENT; cited from earlier work
[2] = solubility profile of sunitinib base as observed by applicants; assay type: physicochemical; settings: sunitinib base obtained in the prior art (Form III); qualitative observation
Source text: In this regard, the low solubility of sunitinib base Form III would involve the use of large amounts of suitable solvents or mixture of solvents and/or the use of particular conditions aimed to improve the solubility of sunitinib base Form III and/or long reaction times for processes using sunitinib, which may represent an important drawback, especially for processes on an industrial scale.

solubility profile [2] | SMILES | solubility class according to the biopharmaceutical classification [1]
– | CCN(CC)CCNC(=O)c1c(C)[nH]c(/C=C2\C(=O)Nc3ccc(F)cc32)c1C [sunitinib, N-[2-(diethylamino)ethyl]-5-[(Z)-(5-fluoro-1,2-dihydro-2-oxo-3H-indol-3-ylidine)methyl]-2,4-dimethyl-1H-pyrrole-3-carboxamide] | low solubility compound
low solubility profile | CCN(CC)CCNC(=O)c1c(C)[nH]c(/C=C2\C(=O)Nc3ccc(F)cc32)c1C [sunitinib base Form III, N-[2-(diethylamino)ethyl]-5-[(Z)-(5-fluoro-1,2-dihydro-2-oxo-3H-indol-3-ylidine)methyl]-2,4-dimethyl-1H-pyrrole-3-carboxamide] | –
